{"source": "patent US11572590B2", "about": "“Methods for evaluating tumor cell spheroids using 3D microfluidic cell culture device” (Dana-Farber Cancer Institute, Inc., priority 2017, dated 2023)", "system": "PDOTS", "test": "Bead-based cytokine profiling of PDOTS after ex vivo checkpoint blockade", "format": "cell-based, human", "protocol": "Fresh tumor specimens (murine and human patients) were received in media (DMEM) on ice and minced in a 10 cm dish (on ice) using sterile forceps and scalpel. Minced tumor was resuspended in DMEM ([…], […] sodium pyruvate, 1:100 penicillin-streptomycin) (Corning CellGro, Manassas, Va.) +10% FBS (Gemini Bio-Products, West Sacramento, Calif.), 100 U/mL collagenase type IV (Life Technologies, Carlsbad, Calif.), and 15 mM HEPES (Life Technologies, Carlsbad, Calif.), except for CT26 tumors that were prepared in RPMI. Samples were pelleted and resuspended in 10-20 mL media. Red blood cells were removed from visibly bloody samples using RBC Lysis Buffer (Boston Bio-Products, Ashland, Mass.). […]\nTwo multiplex assays were performed utilizing a bead-based immunoassay approach, the Bio-Plex Pro™ Human Cytokine 40-plex Assay (Cat #171AK99MR2) and Bio-Plex Pro™ Mouse Cytokine Panel 1, 23-plex (Cat #M60009RDPD) on a Bio-plex 200 system (Cat #171000201). […] Fold changes relative to the MDOT/PDOT control were calculated and plotted as log 2FC. Lower and upper limits of quantitation (LLOQ/ULOQ) were imputed from standard curves for cytokines above or below detection. […]"}
{"substance": "PD-1 blockade: PDOTS were treated with anti-PD-1 (pembrolizumab, 250 μg/mL)", "values": [{"measurement": "PDOTS samples with upregulation of CCL19 and CXCL13", "setting": "Day 3 cytokine release, n=28, pembrolizumab 250 μg/mL", "result": "23/28"}]}
{"substance": "CTLA-4 blockade: PDOTS were treated with anti-CTLA-4 (ipilimumab, 50 μg/mL)", "values": [{"measurement": "CCL19/CXCL13 induction in PDOTS", "setting": "Day 3, ipilimumab 50 μg/mL alone or with pembrolizumab 250 μg/mL", "result": "comparatively minimal"}]}
